Laboratory results from patent US20240247031A1, “COMPOSITION FOR TREATING CANCER CONTAINING TELOMERASE-TARGETING GNRH ANTAGONIST-DERIVED PEPTIDE HS1002” (Research & Business Foundation Sungkyunkwan University, priority 2023, published 2024).

Assays:
telomerase = assay: Telomerase activity quantification qPCR in treated LNCaP cells (FIG. 10, 11); assay type: cell-based, human; details: FIG. 11
Protocol: After treatment with GV1001, HS1001, HS1002, and GnRH, the changes in hTERT mRNA and protein expression level were investigated for each peptide. The drug treatment was performed every 24 h considering the stability of peptides in aqueous solutions. To investigate the telomerase activity reducing effect of the peptides, prostate cancer cell lines (LNCaP) were treated with each drug at 300 μM every 24 h for a total of 72 h and then measured for telomerase activity through qPCR. The proteins in a cell lysate were quantified to obtain a telomerase product extended by the same amount of proteins, and qPCR was performed using the telomerase as a template.
In the treatment with the peptides, the change in telomerase activity was investigated. The cells were cultured in 100-mm plates each, and about 24 h later, the cells were treated with the peptides synthesized in Example 3 at a concentration of 300 μM before incubation. The cells were cultured in a 37° C., 5% CO2 incubator using 1% FBS RPMI media. The cells were harvested 72 h after the peptide treatment and measured for telomerase activity. A telomerase activity quantification qPCT analysis kit (ScienCell, Carlsbad, CA, USA) was used.

c-Myc = c-Myc protein expression and transcriptional activity in LNCaP (FIG. 12); assay type: cell-based, human; details: 300 μM, 72 h
Protocol: (§1) The cells and tumor tissues were homogenized using the PRO-PREP™ extraction solution (iNtRON Biotechnology, Seongnam, Korea). After incubation, the homogenate was centrifuged at 16,000×g for 20 min at 4° C., and the supernatant was collected for western blot analysis. Subsequently, an equivalent quantity of protein was separated using sodium dodecyl sulfate polyacrylamide gels and transferred onto a polyvinylidene difluoride (PVDF) membrane. The PVDF membranes were incubated with the primary antibodies overnight at 4° C., washed with tris-buffered saline, and then incubated with HRP-conjugated anti-mouse or anti-rabbit antibodies. The bands were visualized using a ChemiDoc imaging system (Bio-Rad, Hercules, CA, USA). The band intensities were determined using an Image J software.
The c-Myc Transcription Factor Assay Kit (Cat. ab207200, abcam) was used to quantify the activation of c-Myc in nuclear extracts after peptide treatment. […] The protein concentration was quantified using the Bradford method (798 μL Bradford, 200 μL water, and 2 μL of the protein) at a wavelength of 595 nm (SmartSpecPlus; BioRad). For the detection of c-Myc transcriptional activity, 5 μg of the isolated nuclear extracts were used, and the absorbance was measured on a spectrophotometer (Synergy HT; BioTek) at OD 450 nm. […]

[1] = system: AKT, ERK1/2, and mTOR pathways; assay: Western blot of hTERT-regulating signaling proteins in LNCaP (FIG. 13); assay type: cell-based, human; details: LNCaP cells
Protocol: as §1
Furthermore, a western blot analysis assessed the expression levels of signaling pathway proteins that regulate hTERT in LNCaP cells treated with HS1002. […] In addition, the expression of AKT, ERK1/2, and mTOR was unchanged in both the control and HS1002 groups (FIG. 13).

HEK293-GnRHR cells = molecular target: T1, HEK293-GnRHR cells (Homo sapiens, UniProt P30968); assay: Intracellular calcium flux assay; assay type: cell-based
T1 construct: GFP; expressed in transfected cells
T1 sequence (P30968 1-328): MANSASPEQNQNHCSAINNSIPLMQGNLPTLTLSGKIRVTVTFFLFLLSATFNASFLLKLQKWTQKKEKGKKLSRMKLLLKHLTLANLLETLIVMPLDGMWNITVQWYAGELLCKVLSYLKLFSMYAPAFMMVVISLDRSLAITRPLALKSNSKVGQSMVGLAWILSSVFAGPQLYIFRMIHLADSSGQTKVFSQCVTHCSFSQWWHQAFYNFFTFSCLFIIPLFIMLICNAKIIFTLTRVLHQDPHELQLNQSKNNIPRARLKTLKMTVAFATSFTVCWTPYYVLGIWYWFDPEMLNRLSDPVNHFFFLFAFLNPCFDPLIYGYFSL
Protocol: Human embryonic kidney cell line (HEK293), and mouse cancer cell lines (MC38, 4T1) were purchased from the American Type Culture Collection (Manassas, VA, USA). All cell lines were grown in Dulbecco's Modified Essential Medium (DMEM) or Roswell Park Memorial Institute (RPMI) 1640 supplemented with 10% FBS, 100 U/mL penicillin, and 100 μg/mL streptomycin (WelGENE, Daegu, South Korea) in a humidified atmosphere of 5% CO2 at 37° C. To obtain GnRHR-overexpressing HEK293 (HEK293-GnRHR) cells, transfection of the pCMV-AC-GFP-GnRHR vector (HEK293-GnRHR) was performed using Lipofectamine™ 3000 according to the manufacturer's instructions (Cat. 100022052, Thermo Fisher Scientific, Waltham, MA, USA). Colonies of geneticin-resistant cells were selected by adding G418 (800 μg/mL, Sigma) to the culture medium. The HEK293-pCMV-AC-GFP vector (HEK293-Vector) cells were used as a mock-transfection group.
Intracellular calcium mobilization was measured using the Calcium Flux Assay Kit (Cat. ab233472, abcam) in response to different concentrations of each peptide. The percentage increase was calculated relative to basal fluorescence intensity. The experiment was performed in triplicate.

For `CCNC(=O)[C@@H]1CCCN1C(=O)[C@@H](NC(=O)[C@H](Cc1ccccc1)NC(=O)[C@H](CCCNC(=N)N)NC(=O)[C@H](CC(C)C)NC(=O)[C@H](CCCNC(=N)N)NC(=O)[C@H](Cc1ccc(O)cc1)NC(=O)[C@H](CO)NC(=O)[C@H](Cc1c[nH]c2ccccc12)NC(=O)[C@H](Cc1c[nH]cn1)NC(=O)[C@@H]1CCC(=O)N1)[C@@H](C)CC` [HS1002], the “telomerase activity compared with GV1001” value (telomerase) was “better telomerase activity than GV1001”, the c-Myc protein expression (c-Myc) was “significantly decreased” and the c-Myc transcriptional activity (c-Myc) was “significantly decreased”. The “expression of p-AKT” value [1] was “significantly downregulated”, the “expression of p-ERK1/2” value [1] was “significantly downregulated” and the “expression of p-mTOR” value [1] was “significantly downregulated”. For the same compound, the “expression of AKT, ERK1/2, and mTOR” value ([1]; total proteins) was “unchanged”, the calcium flux (HEK293-GnRHR cells; 100 nM) was “increased calcium flux in HEK293-GnRHR cells” and the calcium flux (HEK293-GnRHR cells; 1 and 10 nM) was “increased calcium flux”.
